Experimental data taken from US20110312961A1, “2,5-Disubstituted Morpholine Orexin REceptor Antagonists” (priority 2008, published 2011).

Key:
[1] = Aqueous solubility of salts (salt screen); assay type: physicochemical; details: target 10 mg/ml at 25° C., unbuffered
[2] = tested on: ovalbumin-sensitized mice; assay: Airway hyperresponsiveness (Penh) and BALF cell counts; assay type: in vivo, mouse
Description: Using the method of Hamelmann et al, (2S,3R)—N-2-((3-pyridinyl)methyl)-1-azabicyclo[2.2.2]oct-3-yl)-3,5-difluorobenzamide was evaluated for possible inhibition of airway hyper-responsiveness in mice. Briefly, ovalbumin (OVA)-sensitized animals, 12 animals per group, were challenged by nasal inhalation with aerosolized 5% OVA for 25 min on days 21, 23, and 25. The mice were treated with vehicle or (2S,3R)—N-2-((3-pyridinyl)methyl)-1-azabicyclo[2.2.2]oct-3-yl)-3,5-difluorobenzamide subcutaneously (s.c.) twice daily from day 21 to day 26 or once daily intratracheally (i.t.), preceding ovalbumin aerosol challenge by 30 min on days 21, 23 and 25 as well as methacholine challenge or bronchoalveolar lavage fluids (BALF) harvest on day 26. Dexamethasone, the reference standard, was administered at 3 mg/kg orally (p.o.) once daily 60 min before OVA challenge on day 21, 23 and 25 and 60 min before methacholine provocation or BALF harvest on day 26. Noninvasive measurements of airway responsiveness were performed by using whole body plethysmography, in which increases in enhanced pause (Penh) serve as an index of airway obstruction. Responses to inhaled methacholine were measured and calculated as percentage of respective baseline values. Unpaired Students t-test was used for comparison between the vehicle control and the sham group; one-way ANOVA and Dunnett's post-hoc analyses were applied for comparison between the vehicle control and treated groups. Statistical significance is considered at P<0.05.

[3] = tested on: db/db mouse; assay: Murine model of type 2 diabetes mellitus (db/db); assay type: in vivo; details: MLA 3 mg/kg daily via gavage with Compound A 1.0 mg/kg, obese mice
From the text: The db/db mouse, a well established model of type 2 diabetes mellitus, is a leptin-deficient mutant that expresses an obese phenotype and also commonly expresses metabolic symptoms including hyperglycemia, hyperlipidemia and hyperinsulinemia (Halaas et al., 1995 and Lee et al., 1996). This experimental animal model of diabetes was employed in a study designed to determine the effects of (2S,3R)—N-2-((3-pyridinyl)methyl)-1-azabicyclo[2.2.2]oct-3-yl)-3,5-difluorobenzamide on body mass and several additional metabolic parameters.
In this study, (2S,3R)—N-2-((3-pyridinyl)methyl)-1-azabicyclo[2.2.2]oct-3-yl)-3,5-difluorobenzamide was repeatedly administered orally (via gavage) at 1.0 mg/kg once daily starting from the age of approximately 3 weeks and continuing throughout the 7-week study. Nondiabetic heterozygote littermate mice (db/+; designated “Db”) were used as controls. Body weight and food intake were determined twice weekly. The α7 antagonist methyllycaconitine (MLA) was also given concurrently via gavage at 3 mg/kg daily to selected cohorts of db/db (designated “db”) or db/+mice. At the end of the 7-week dosing regimen, total growth rates (overall body weight gain) and average daily food intake were calculated. In addition, glucose levels were assessed in mice fasted overnight. Furthermore, blood sample analytes from mice fasted overnight were collected for measurements of tumor necrosis factor-a (TNF-α), triglycerides and glycosylated hemoglobin (HbA1c). All data are expressed as mean±SEM. For each parameter investigated, differences among all groups were compared by one-way ANOVA with post-hoc Neuman-Keuls multiple comparison test.

[4] = tested on: STZ rat model of diabetic neuropathy; assay: Streptozotocin (STZ)-induced diabetic neuropathy, Von Frey allodynia; assay type: in vivo; details: 150 mg/kg i.p., 2 hours before testing, all treatment days, vs pretreatment and vehicle, p<0.01
From the text: Peripheral neuropathy, a major complication of diabetes, often results in spontaneous pain or the perception of pain from contact with a normally non-noxious stimulus. Such neuropathic pain is experienced by 20-24% of diabetic patients, or approximately 30 million people worldwide (Schmader, 2002). The streptozotocin (STZ)-induced diabetes model in rats provides a means to evaluate the efficacy of test compounds that offer therapeutic potential for peripheral neuropathy and to understand their putative mechanism of action. In this model, a single injection of STZ, an antibiotic that mimics clinical diabetes by causing irreversible damage to the pancreatic β and α-cells leads to chronic hyperglycemia, nerve dysfunction and pain sensitivity. The current study utilizes the STZ rat model of diabetic neuropathy to investigate the effects of (2S,3R)—N-2-((3-pyridinyl)methyl)-1-azabicyclo[2.2.2]oct-3-yl)-3,5-difluorobenzamide on mechanical allodynia, an assessment of pain.
Diabetes was induced by a 0.5 ml injection of streptozotocin (60 mg/kg) dissolved in citrate buffer (pH) into the tail vein of each rat The development of diabetes was confirmed by measuring the blood glucose levels (BGL) of all animals on study day 3 (BGL>300 mg/dL). […] These animals were tested again for their BGL at study day 23.
(2S,3R)—N-2-((3-pyridinyl)methyl)-1-azabicyclo[2.2.2]oct-3-yl)-3,5-difluorobenzamide (0.1, 1 or 10 mg/kg p.o.) was administered as a solution of the hydrochloride salt in water once daily starting on study day 14 or study day 16 and continuing through study day 21 or 23, respectively. The control article gabapentin (in 0.9% saline, 150 mg/kg i.p.) was only administered on allodynia test days. Test item, vehicle or control article administration was based on evaluation of allodynia on study day 14. If allodynia was not present on study day 14, the animal was evaluated again at study day 16. Pain response was measured either on study days 14 and 21 or 16 and 23, 30 minutes after Test Item administration.
For the allodynia assessments, Von Frey filaments were used according to the methods of Chaplan and colleagues (1994). Briefly, the rats were placed in an enclosure and positioned on a metal mesh surface, but allowed to move freely. The rats' cabins were covered with red cellophane to diminish environmental distributions. The test began after cessation of exploratory behavior.
When the tip of a Von Frey fiber of given length and diameter was pressed against the skin at right angles, the force of application increases as long as the researcher continued to advance the probe until the fiber bent. After the fiber bent, the probe was advanced, causing the fiber to bend more, but without additional force being applied. The animal would indicate sensation by pulling back its paw. In the absence of a paw withdrawal response to the initially selected filament, a stronger stimulus was presented; in the event of paw withdrawal, the next weaker stimulus was chosen. In this fashion, the resulting pattern of positive and negative responses was used to determine the paw withdrawal threshold.
The set of Von Frey monofilaments provide an approximate logarithmic scale of actual force and a linear scale of perceived intensity. Below is a table showing the force (g) and its corresponding size of monofilaments.
All normally distributed data are presented as means±SEM, as well as the animals' individual values followed by a student T-test (Software: Microsoft® Excel). A p value <0.05 is considered to represent a significant difference. Due to the non-normal distribution of the allodynia data, descriptions of those data are provided as both mean (±SEM) and median values in order to represent their imprecise nature and skewed distribution.

SMILES: O=C(N[C@@H]1C2CCN(CC2)[C@H]1Cc1cccnc1)c1cc(F)cc(F)c1.O=C(N[C@@H]1C2CCN(CC2)[C@H]1Cc1cccnc1)c1cc(F)cc(F)c1.O=C(O)c1ccc(O)cc1 [4-Hydroxybenzoate mono salt]
- Aqueous Solubility [1]: >10000 µg/mL

SMILES: C[C@@H]1C[C@H]2[C@@H]3CCC4=CC(=O)C=C[C@]4(C)[C@@]3(F)[C@@H](O)C[C@]2(C)[C@@]1(O)C(=O)CO [Dexamethasone, reference compound]
- methacholine (10 and 30 mg/mL)-induced increase in Penh values ([2]; 3 mg/kg PO once daily, reference standard): significant inhibition
- increase in total WBC, neutrophils, lymphocytes, monocytes and eosinophils in BALF ([2]; 3 mg/kg p.o. once daily): inhibited significantly

SMILES: O=C(N[C@@H]1C2CCN(CC2)[C@H]1Cc1cccnc1)c1cc(F)cc(F)c1.O=C(O)/C=C/C(=O)O [Fumarate mono salt]
- Aqueous Solubility [1]: >10000 µg/mL

SMILES: Cl.O=C(N[C@@H]1C2CCN(CC2)[C@H]1Cc1cccnc1)c1cc(F)cc(F)c1 [Hydrochloride mono salts]
- Aqueous Solubility [1]: >10000 µg/mL

SMILES: CCN1C[C@]2(COC(=O)c3ccccc3N3C(=O)C[C@H](C)C3=O)CC[C@H](OC)[C@@]34[C@@H]5C[C@H]6[C@H](OC)[C@@H]5[C@](O)(C[C@@H]6OC)[C@@](O)([C@@H](OC)[C@H]23)[C@@H]14 [MLA, methyllycaconitine, reference compound]
- effect of MLA co-administration on the inhibition of fasting plasma glucose [3]: not reversed
- effect of MLA co-administration on the reduced food consumption [3]: failed to show the reduced daily average food consumption
- effect of MLA co-administration on the reduced weight gain [3]: failed to show the reduced weight gain
- effect of MLA co-administration on the reduction in glycosylated HbA1c [3]: attenuated
- effect of MLA co-administration on the reduction in triglycerides [3]: not attenuated
- effect of MLA co-administration on the reduction of TNF alpha [3]: inhibited

SMILES: O=C(N[C@@H]1C2CCN(CC2)[C@H]1Cc1cccnc1)c1cc(F)cc(F)c1.O=P(O)(O)O [Phosphate mono salts]
- Aqueous Solubility [1]: >10000 µg/mL

SMILES: NCC1(CC(=O)O)CCCCC1 [gabapentin, reference compound]
- tactile allodynia [4]: reversed the tactile allodynia significantly
